The compounds below were run against T1, P. falciparum glutathione reductase (PfGR) (Plasmodium falciparum, UniProt Q94655) (assay: NADPH oxidation at […] nm, Cleland plot ([…]/kcat vs [I])).
T1 construct: gene GR; 2 x 55 kD homodimer with FAD
Assay type: biochemical

T1 sequence (Q94655 2-500): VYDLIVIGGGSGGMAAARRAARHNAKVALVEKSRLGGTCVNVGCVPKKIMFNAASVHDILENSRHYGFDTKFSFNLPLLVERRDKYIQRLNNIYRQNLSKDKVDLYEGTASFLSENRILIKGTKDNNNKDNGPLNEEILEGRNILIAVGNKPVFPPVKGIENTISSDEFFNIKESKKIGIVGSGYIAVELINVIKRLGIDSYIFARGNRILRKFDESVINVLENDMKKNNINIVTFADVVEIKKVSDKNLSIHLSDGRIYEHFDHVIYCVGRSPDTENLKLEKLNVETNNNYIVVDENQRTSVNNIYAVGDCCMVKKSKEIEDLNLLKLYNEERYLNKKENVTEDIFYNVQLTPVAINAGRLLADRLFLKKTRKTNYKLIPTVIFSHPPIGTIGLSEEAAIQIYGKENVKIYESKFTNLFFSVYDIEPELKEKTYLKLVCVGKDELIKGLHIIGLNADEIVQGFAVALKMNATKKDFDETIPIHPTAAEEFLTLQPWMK

Structure (SMILES)	Ki [µM]
O=C1CN(/N=C/c2ccc([N+](=O)[O-])o2)C(=O)N1 [compound 10, Nitrofurantoin]	9 ± 1
O=Cc1ccc([N+](=O)[O-])cc1 [compound 7, 4-Nitrobenzaldehyde]	25 ± 4
O=C(O)c1ccc([N+](=O)[O-])cc1 [compound 2, 4-Nitrobenzoic acid]	1200 ± 180
CC(=O)c1ccc([N+](=O)[O-])cc1 [compound 4, 4-Nitroacetophenone]	70 ± 11
O=[N+]([O-])c1ccc(/C=N/O)o1 [compound 11, Nifuroxime]	32 ± 5

What follows are compounds tested against T1, P. falciparum glutathione reductase (PfGR) (assay: GSH-mediated DTNB reduction at […] nm, Cleland plot).
Assay type: biochemical

Structure (SMILES)	Ki [µM]
NC(=O)c1cc(N2CC2)c([N+](=O)[O-])cc1[N+](=O)[O-] [compound 3, 5-(Aziridin-1-yl)-2,4-dinitrobenzamide]	350 ± 40
